The values that follow come from US20120277199A1, “Modulation of Gel Temperature of Poloxamer-Containing Formulations” (Otonomy, Inc., priority 2009, published 2012).

Converted amounts (≈) assume the structure as drawn.

The conditions of data set [1]: systemically administered (oral or intravenously); cited from earlier work.
The nature of data set [2]: In vitro dissolution in snapwells, mean dissolution time (MDT). The format is physicochemical.
Experimental: Dissolution was performed at 37° C. in snapwells (6.5 mm diameter polycarbonate membrane with a pore size of 0.4 μm). […] Samples were taken every hour (0.1 mL withdrawn and replaced with warm buffer).
Dissolution is performed at 37° C. in snapwells (6.5 mm diameter polycarbonate membrane with a pore size of 0.4 μm), 0.2 mL of a gel formulation described herein is placed into snapwell and left to harden, then 0.5 mL buffer is placed into reservoir and shaken using a Labline orbit shaker at 70 rpm. Samples are taken every hour (0.1 mL withdrawn and replace with warm buffer). […] Pluronic concentration is analyzed at 624 nm using the cobalt thiocyanate method.
The mean dissolution time (MDT) is the sum of different periods of time the drug molecules stay in the matrix before release, divided by the total number of molecules and is optionally calculated by:
Dissolution was performed at 37° C. in snapwells (6.5 mm diameter polycarbonate membrane with a pore size of 0.4 μm), 0.2 mL of formulation was placed into snapwell and left to harden, then 0.5 mL of 0.9% saline was placed into reservoir and shaken using a Labline orbit shaker at 70 rpm. Samples were taken every hour (0.1 mL withdrawn and replace with warm buffer). Samples analyzed for dexamethasone and ciprofloxacin concentration by UV at 245 and 270 nm, respectively using a Evolution 160 UV/Vis spectrophotometer (Thermo Scientific). Quantitation performed against an external calibration standard.
Dissolution was performed at 37° C. in snapwells (6.5 mm diameter polycarbonate membrane with a pore size of 0.4 μm), 0.2 mL of gel was placed into snapwell and left to harden, 0.5 mL of 0.9% saline was placed into reservoir and shaken using a Labline orbit shaker at 70 rpm. Samples were taken every hour (All the saline withdrawn and replace with warm 0.9% saline with an osmolality of 290 mOsm). Samples were analyzed for Ciprofloxacin by HPLC.
Data set [3] can be described thus: Stability to autoclaving (impurity profile, assay, pH, osmolality, appearance). The format is physicochemical. The following applies: autoclaving at 250° F. for 30 minutes in P407.
Experimental: Cold 16% P407 in 50 mM TRIS buffers-saline (pH 7.4 and osmolality of 280 mOsM) was placed in a open container, then ciprofloxacin free base or ciprofloxacin free base hydrate (3.5 moles) was sprinkled in while mixing. Ciprofloxacin suspension was mixed for not less than 10 minutes, then micronized dexamethasone was added slowly to the mixture while mixing. The homogenous suspension was then transferred to 3 mL vials and filled at different volumens (v1=4 g, v2, 3 g and v3 2 g). The glass vial were sealed with West stoppers (fluorotec coated) and Aluminum seals, followed by autoclaving at 250° F. for 30 minutes.
Weigh 58.8 g of the above buffer, chill down, then sprinkle while mixing 11.291 g of poloxamer 407 NF (BASF lot WPNF580C), mix until fully dissolved. Weigh 64.8 g of a the 16% P407 (above solution) into a 100 mL glass bottle containing a 35 mm stir bar then sprinkle 2.2915 g of ciprofloxacin hydrate (Neuland lot CHI071000). Mix for not less than 2 hours at a setting of 11 (IKA stir plate) minutes while cooling then fill 31 two mL vials with approximately 2 g of suspension, stopper them with 13 mm West stoppers and seal them with Al seal, autoclave for 30 minutes @ 250° C.
Data set [4] is described as follows: Perilymph pharmacokinetics after intratympanic injection in guinea pigs. The following applies: guinea pig, in vivo. As to the method: Guinea pigs were administered 50 μl via intratympanic delivery and PK in the perilymph was measured as described herein.
Female guinea pigs (Charles River) weighing 200-300 g, of approximately 6-8 weeks of age are used (N=4 per group). Prior to any procedure, animals are anesthetized using a combination of xylazine (10 mg/kg), ketamine (40 mg/kg) and acepromazine (0.75 mg/kg) for up to an hour via the intramuscular route. If needed, an intraoperative booster is administered intraperitoneally representing one-tenth of the original dose. Intratympanic injection—Each animal is positioned so that the head is tilted at an angle to favor injection towards the round window niche. Briefly, under visualization with an operating microscope, 50 μl of formulations comprising 0 to 50% active agent and varying concentrations of P407 are administered to the animals. […] During the procedure and until recovery, animals are placed on a temperature controlled (40° C.) heating pad until consciousness is regained at which time they are returned to the vivarium. Perilymph sampling procedure—The skin behind the ear of anesthetized guinea pigs is shaved and disinfected with povidone-iodine. An incision is then made behind the ear, and muscles are carefully retracted from over the bulla. […]
Determination of active agent concentrations is performed using high pressure liquid chromatography (HPLC) combined with mass spectrometry detection (MS). […] The samples are analyzed by reversed phase HPLC (1100 series, Agilent) using an Atlantis dC18 column maintained at 40° C. The mobile phase is nebulized using heating nitrogen in a Z-spray source/interface and the ionized compounds detected using MS/MS (Tandem quadrupole mass spectrometer, Quattro Ultima, Waters). Peak heights of an active agent are determined using MassLynx software (Waters). […]
Pharmacokinetic parameters are calculated using conventional noncompartmental pharmacokinetic methods. The apparent clearance (CL app) is calculated as the ratio between the administered intratympanic dose and the exposure (AUC). […]

For data set [5] the following is noted: cited from earlier work.
The nature of data set [6]: physchem. The following applies: aqueous with cosolvent or surfactant or cyclodextrin, thermodynamic from solid. Here is the method: In addition, modifying the solubility of the active agent can also have an effect on the properties of the thermosensitive gel.
A formulation comprising 0.5% w/w SP600125 in 16% Poloxamer 407 was made by dispersing 5.3 mg of SP600125 (LC Labs) in 994.7 mg of a 16% P407 in 50 mM Tris buffer.

Consider `O=P(O)(O)C(O)(Cc1cccnc1)P(=O)(O)O` [rosidronate], for which the “amount reaching the perilymph in the inner ear and/or otic bone structure” value in data set [1] is listed as “about 0.6 ng/day”. On to `C[C@@H]1C[C@H]2[C@@H]3CCC4=CC(=O)C=C[C@]4(C)[C@@]3(F)[C@@H](O)C[C@]2(C)[C@@]1(O)C(=O)COP(=O)(O)O` [DSP, dexamethasone sodium phosphate], for which the MDT result in data set [2] (17% Poloxamer 407 formulation) is “about 3 h”; in data set [2] (DSP aqueous solution, micronized DEX suspension in water (no poloxamer)), 0.3 h. Take `O=C(O)c1cn(C2CC2)c2cc(N3CCNCC3)c(F)cc2c1=O` [ciprofloxacin free base, ciprofloxacin]: in data set [3], the “change observed after autoclaving” value is on record as “appreciable particle size increase”. Consider `C[C@H]1C[C@@H]2[C@H]([C@@H](O)C[C@@]3(C)[C@H]2CC[C@]3(O)C(=O)COC(=O)CCC(=O)[O-])[C@@]2(C)C=CC(=O)C=C12.[Na+]` [MPS], for which the MDT result in data set [2] (17% Poloxamer 407 formulation) is “about 3 h”. The “peak methylprednisolone levels in the perilymph” value in data set [4] came out at 6.5 µg/mL. Turning to `O=P(O)(O)C(O)(Cn1ccnc1)P(=O)(O)O` [Zoledronate], in data set [2] (16% P407 formulation, FIG. 6), the “in vitro mean dissolution time (MDT)” value turned out to be 2 h. Besides, the “amount reaching the perilymph in the inner ear and/or otic bone structure” value in data set [1] was “about 0.1 ng/day”. Take `Cc1cccc(CN2CCN(C(c3ccccc3)c3ccc(Cl)cc3)CC2)c1` (stereo not shown) [meclizine]: the solubility in water entry in data set [5] is given as “insoluble in water”. `O=C(O)c1cn(C2CC2)c2cc(N3CCNCC3)c(F)cc2c1=O` [ciprofloxacin free base hydrate, ciprofloxacin hydrate]: the “change observed after autoclaving” value in data set [3] (hydrate) is on record as “minimal growth or recrystallization”.

`CN(C)CCC=C1c2ccccc2CCc2ccccc21` [amitriptyline]: the water solubility entry in data set [5] is “greater than 100 mg/mL”.

In the case of `C[C@H]1C[C@@H]2[C@H]([C@@H](O)C[C@@]3(C)[C@H]2CC[C@]3(O)C(=O)CO)[C@@]2(C)C=CC(=O)C=C12` [MP], in data set [4], the “decrease of perilymph levels after peak” value was “decreased slowly over 10 days” and the “peak methylprednisolone levels in the perilymph” value was determined as 19.2 µg/mL. The term solubility denotes how much of the substance goes into solution per volume. On to `O=C1c2ccccc2-c2n[nH]c3cccc1c23` [SP600125, anthra[1,9-cd]pyrazol-6(2H)-one], for which the solubility in data set [6] is around 190 µg/mL (≈ 863 µM). Besides, the reported water solubility in data set [5] is 11 µg/mL. The “LogD (7.4)” value in data set [5] (pH 7.4) is on record as 3.2.
